Test results: patent US20220401324A1, “COSMETIC PREPARATION WITH ANISIC ACID AND LEVULINIC ACID, HAVING SELECTIVE ANTIMICROBIAL EFFECT” (BEIERSDORF AG, priority 2019, published 2022)

Columns and labels:
[1] = test system: S. epidermidis (DSM 1798); test: Suspension test with S. epidermidis; type: cell-based, Staphylococcus epidermidis; settings: BHI medium, sampled after 1 h, 3 h and 6 h
Description: (§1) The effect of the formulations according to the invention was further tested in suspension tests with S. epidermidis and C. acnes. […] These liquid stock cultures were used to prepare a first passage. Here, a sterile disposable inoculation loop was used to streak the relevant culture on an agar plate (C. acnes: COST agar, S. epidermidis: COAST agar) and the culture was then incubated. The cultures of C. acnes were incubated at 37° C. for 5 days, whereas the cultures of S. epidermidis were incubated at 37° C. for 24 h. Said first passage was then used to prepare a second passage by picking of a few colonies using a sterile disposable inoculation loop and subsequent streaking thereof onto a new agar plate. Said second passage was then incubated at the appropriate temperature for 5 days or 24 h. The second passage obtained was then used for the suspension test.
(§2) To prepare the suspensions, a few colonies of the second passage were removed using a sterile inoculation loop and added to 10 mL of medium in a baffled flask containing 5 g of glass beads (4 mm diameter) and gently shaken for 3 min. Thereafter, optical density (OD) was used to set the approximate number of cells per mL. Optical density was determined at 600 nm using an Eppendorf photometer. The OD obtained was adjusted to a value around 0.8 (±0.01) and then diluted again 1:50. […]

C. acnes (DSM 1897) = test: Suspension test with C. acnes; type: cell-based, Cutibacterium acnes; settings: anaerobic medium, sampled after 1 h, 3 h and 6 h
Description: as §1, §2

Compound: COc1ccc(C(=O)O)cc1 [anisic acid, 4-methoxybenzoic acid]
- growth of the aerobic bacterium S. epidermidis (FIGS. 4 and 5) [1]: does not significantly affect the growth
- cell count of the anaerobic bacterium C. acnes (FIGS. 4 and 5) (C. acnes (DSM 1897)): does not lead to a reduction in the cell count

Compound: CC(=O)CCC(=O)O [levulinic acid, 4-oxopentanoic acid]
- growth of the aerobic bacterium S. epidermidis (FIGS. 4 and 5) [1]: does not significantly affect the growth
- cell count of the anaerobic bacterium C. acnes (FIGS. 4 and 5) (C. acnes (DSM 1897)): does not lead to a reduction in the cell count
